The source of these data is ChEMBL document CHEMBL4346710, “Discovery of 7H-pyrrolo[2,3-d]pyrimidine derivatives as selective covalent irreversible inhibitors of interleukin-2-inducible T-cell kinase (Itk)” (Eur J Med Chem, 2019).

Usually IC50 stands for the concentration that inhibits the measured activity by half. A word on the GI50: it is the concentration at which growth is held to half of that of the control. Higher therefore signals less potent growth inhibition.

Molecules are shown by their SMILES. Active and inactive are the calls of the source. The rule behind the calls is not given here.

The target in assay [1] is Tyrosine-protein kinase BTK (Homo sapiens, UniProt Q06187). The assay can be described thus: Inhibition of recombinant human full-length N-terminal His6-tagged BTK expressed in baculovirus infected Sf21 insect cells using STK substrate by HTRF assay. (In general: Time-resolved FRET reads energy transfer from a long-lived donor to a nearby acceptor.)
Assay [2] relates to CCRF-CEM. In words: Induction of apoptosis in human CCRF-CEM cells assessed as downregulation of PARP at 1 to 5 uM incubated for 24 hrs by Western blot analysis. The class given is functional, cell-based. For orientation: Immunoblotting shows a protein as a band on a membrane.
Assay [3] deals with CCRF-CEM. The assay can be described thus: Induction of apoptosis in human CCRF-CEM cells assessed as upregulation of cleaved PARP at 1 to 5 uM incubated for 24 hrs by Western blot analysis. The class given is functional, cell-based.
The subject of assay [4] is MOLT-4. In words: Growth inhibition of human MOLT4 cells incubated for 72 hrs by CellTiter-Glo luminescent cell viability assay. The class given is functional. As to conditions: MOLT-4, 72 h. A general note: In ATP-based viability assays light output follows the ATP content of the culture.
The species named for assay [5] is Homo sapiens. The assay can be described thus: Selectivity ratio of IC50 for recombinant human N-terminal His6-tagged JAK3 (781 to end residues) expressed in baculovirus infected Sf21 cells to IC50 for recombinant human N-terminal His6-tagged ITK (352 to 617 residues) expressed in baculovirus infected Sf21 insect cells.
The species named for assay [6] is Homo sapiens. In words: Selectivity ratio of IC50 for recombinant human N-terminal GST-tagged EGFR kinase domain (696 to end residues) expressed in baculovirus infected Sf21 insect cells to IC50 for recombinant human N-terminal His6-tagged ITK (352 to 617 residues) expressed in baculovirus infected Sf21 insect cells.
The target in assay [7] is Serine/threonine-protein kinase Sgk1 (Homo sapiens) (UniProt O00141). In words: Inhibition of recombinant human GST-tagged SGK1 catalytic domain (60 to 431 residues) expressed in baculovirus expression system assessed as enzyme residual activity at 0.4 uM using fluorophore-labeled serine/threonine-6 peptide as substrate incubated for 60 mins by Z'-LYTE assay relative to control.

The target in assay [8] is Mitogen-activated protein kinase 14 (Homo sapiens) (UniProt Q16539). In words: Inhibition of recombinant full length human GST-tagged MAPK14 expressed in Escherichia coli assessed as enzyme residual activity at 0.4 uM using fluorophore-labeled serine/threonine-04 peptide as substrate incubated for 60 mins by Z'-LYTE assay relative to control.
Assay [9] concerns the target Casein kinase I isoform alpha (Homo sapiens) (UniProt P48729). In words: Inhibition of recombinant full length human GST-tagged CSNK1A1 expressed in baculovirus expression system assessed as enzyme residual activity at 0.4 uM using fluorophore-labeled serine/threonine-11 peptide as substrate incubated for 60 mins by Z'-LYTE assay relative to control.
The target of assay [10] is Serine/threonine-protein kinase Nek1 (Homo sapiens) (UniProt Q96PY6). The assay can be described thus: Inhibition of recombinant human GST-tagged NEK1 catalytic domain (1 to 505 amino acids) expressed in baculovirus expression system assessed as enzyme residual activity at 0.4 uM using fluorophore-labeled serine/threonine-07 peptide as substrate incubated for 60 mins by Z'-LYTE assay relative to control.

The target of assay [11] is Insulin-like growth factor 1 receptor (Homo sapiens) (UniProt P08069). The assay can be described thus: Inhibition of recombinant human His-tagged IGF1R cytoplasmic domain ([…]) expressed in baculovirus expression system assessed as enzyme residual activity at 0.4 uM using fluorophore-labeled tyrosine-1 peptide as substrate incubated for 60 mins by Z'-LYTE assay relative to control.

Assay [12] concerns the target Serine/threonine-protein kinase Chk2 (Homo sapiens) (UniProt O96017). The assay can be described thus: Inhibition of recombinant full length human His-tagged CHEK2 expressed in baculovirus expression system assessed as enzyme residual activity at 0.4 uM using fluorophore-labeled serine/threonine-07 peptide as substrate incubated for 60 mins by Z'-LYTE assay relative to control.

In assay [13] the target is Epidermal growth factor receptor (Homo sapiens, UniProt P00533). In words: Inhibition of human recombinant GST-tagged EGFR cytoplasmic domain (668 to 1210 residues) expressed in baculovirus expression system assessed as enzyme residual activity at 0.4 uM using fluorophore-labeled tyrosine-4 peptide as substrate by Z'-Lyte assay relative to control.
Assay [14] has as its target Glycogen synthase kinase-3 alpha (Homo sapiens) (UniProt P49840). In words: Inhibition of recombinant full length human His-tagged GSK3alpha expressed in baculovirus expression system assessed as enzyme residual activity at 0.4 uM using fluorophore-labeled serine/threonine-9 peptide as substrate incubated for 60 mins by Z'-LYTE assay relative to control.
For assay [15], the target named is T1, Tyrosine-protein kinase ITK/TSK (Homo sapiens) (UniProt Q08881).
T1 sequence (whole entry): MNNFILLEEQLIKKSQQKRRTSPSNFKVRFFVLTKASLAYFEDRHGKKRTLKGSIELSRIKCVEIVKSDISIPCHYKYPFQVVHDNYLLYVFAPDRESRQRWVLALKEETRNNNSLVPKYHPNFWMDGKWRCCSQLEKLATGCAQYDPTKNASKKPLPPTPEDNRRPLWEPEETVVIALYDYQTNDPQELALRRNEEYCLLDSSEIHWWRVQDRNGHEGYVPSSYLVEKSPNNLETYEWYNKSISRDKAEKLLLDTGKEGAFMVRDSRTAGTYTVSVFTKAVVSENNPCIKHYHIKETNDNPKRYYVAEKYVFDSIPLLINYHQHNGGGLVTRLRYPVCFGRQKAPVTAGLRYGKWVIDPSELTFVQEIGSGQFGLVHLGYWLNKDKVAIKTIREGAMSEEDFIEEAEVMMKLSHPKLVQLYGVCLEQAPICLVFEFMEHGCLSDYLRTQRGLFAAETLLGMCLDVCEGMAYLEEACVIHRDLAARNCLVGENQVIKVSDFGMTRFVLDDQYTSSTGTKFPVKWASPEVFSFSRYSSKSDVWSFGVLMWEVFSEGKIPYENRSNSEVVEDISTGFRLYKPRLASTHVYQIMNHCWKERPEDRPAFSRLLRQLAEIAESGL
In words: Inhibition of recombinant human N-terminal His6-tagged ITK (352 to 617 residues) expressed in baculovirus infected Sf21 insect cells assessed as ratio of Kinact to Ki using STK substrate by HTRF assay.

Assay [16] relates to HEK-293T. In words: Growth inhibition of HEK293T cells incubated for 72 hrs by CellTiter-Glo luminescent cell viability assay. The class given is functional. Conditions: Homo sapiens.
Assay [17] deals with Jurkat. The assay can be described thus: Induction of apoptosis in human Jurkat cells assessed as upregulation of cleaved PARP at 1 to 20 uM incubated for 24 hrs by Western blot analysis. The class given is functional, cell-based.
Assay [18] concerns MOLT-4. In words: Induction of apoptosis in human MOLT4 cells assessed as upregulation of cleaved PARP at 1 to 20 uM incubated for 24 hrs by Western blot analysis. The class given is functional, cell-based.
Assay [19] relates to CCRF-CEM. In words: Induction of apoptosis in human CCRF-CEM cells assessed as downregulation of caspase3 at 1 to 5 uM incubated for 24 hrs by Western blot analysis. The class given is functional, cell-based.
Assay [20] has as its target Tyrosine-protein kinase Lck (Homo sapiens, UniProt P06239). In words: Inhibition of recombinant full length human C-terminal His-tagged LCK cytoplasmic domain expressed in baculovirus expression system using fluorophore-labeled tyrosine-2 peptide as substrate incubated for 60 mins by Z'-LYTE assay.
Assay [21] has as its target Tyrosine-protein kinase Blk (Homo sapiens, UniProt P51451). In words: Inhibition of recombinant full-length human His-tagged BLK cytoplasmic domain expressed in baculovirus expression system using fluorophore-labeled tyrosine-1 peptide as substrate incubated for 60 mins by Z'-LYTE assay.

Sequence of Serine/threonine-protein kinase Nek1 (Homo sapiens) (Q96PY6 whole entry, the tested form may be a part): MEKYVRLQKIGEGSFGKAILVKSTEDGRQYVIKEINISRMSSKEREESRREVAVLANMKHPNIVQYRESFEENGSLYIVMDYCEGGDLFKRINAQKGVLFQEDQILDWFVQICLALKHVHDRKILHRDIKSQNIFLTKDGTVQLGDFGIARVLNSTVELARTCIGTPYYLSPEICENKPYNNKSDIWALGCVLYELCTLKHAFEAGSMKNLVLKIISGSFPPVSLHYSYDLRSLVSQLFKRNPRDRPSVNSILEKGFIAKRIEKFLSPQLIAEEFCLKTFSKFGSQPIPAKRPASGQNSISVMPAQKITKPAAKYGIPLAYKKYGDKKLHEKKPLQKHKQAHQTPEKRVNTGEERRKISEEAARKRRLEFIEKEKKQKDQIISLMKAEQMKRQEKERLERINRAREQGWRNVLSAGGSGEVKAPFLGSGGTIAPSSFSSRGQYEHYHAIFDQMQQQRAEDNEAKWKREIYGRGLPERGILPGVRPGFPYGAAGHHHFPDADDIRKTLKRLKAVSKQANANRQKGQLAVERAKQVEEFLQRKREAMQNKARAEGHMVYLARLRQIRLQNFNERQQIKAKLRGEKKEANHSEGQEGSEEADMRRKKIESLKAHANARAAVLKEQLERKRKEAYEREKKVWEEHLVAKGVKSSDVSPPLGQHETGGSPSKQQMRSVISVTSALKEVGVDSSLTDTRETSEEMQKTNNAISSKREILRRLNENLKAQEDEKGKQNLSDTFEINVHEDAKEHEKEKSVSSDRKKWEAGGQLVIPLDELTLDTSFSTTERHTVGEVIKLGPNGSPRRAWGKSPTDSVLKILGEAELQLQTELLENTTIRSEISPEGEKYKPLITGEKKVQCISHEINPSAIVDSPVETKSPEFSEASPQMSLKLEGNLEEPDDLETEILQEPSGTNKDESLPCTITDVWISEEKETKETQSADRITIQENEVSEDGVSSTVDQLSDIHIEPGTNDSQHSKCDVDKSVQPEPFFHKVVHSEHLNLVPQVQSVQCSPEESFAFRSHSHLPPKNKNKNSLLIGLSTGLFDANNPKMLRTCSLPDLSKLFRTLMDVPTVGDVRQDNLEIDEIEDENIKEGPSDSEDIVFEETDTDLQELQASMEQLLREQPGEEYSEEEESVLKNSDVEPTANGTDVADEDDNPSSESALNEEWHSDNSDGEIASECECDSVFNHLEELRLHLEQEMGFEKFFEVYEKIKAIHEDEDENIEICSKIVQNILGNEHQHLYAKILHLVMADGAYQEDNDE
Sequence of Glycogen synthase kinase-3 alpha (Homo sapiens) (P49840 2-483 limits assumed): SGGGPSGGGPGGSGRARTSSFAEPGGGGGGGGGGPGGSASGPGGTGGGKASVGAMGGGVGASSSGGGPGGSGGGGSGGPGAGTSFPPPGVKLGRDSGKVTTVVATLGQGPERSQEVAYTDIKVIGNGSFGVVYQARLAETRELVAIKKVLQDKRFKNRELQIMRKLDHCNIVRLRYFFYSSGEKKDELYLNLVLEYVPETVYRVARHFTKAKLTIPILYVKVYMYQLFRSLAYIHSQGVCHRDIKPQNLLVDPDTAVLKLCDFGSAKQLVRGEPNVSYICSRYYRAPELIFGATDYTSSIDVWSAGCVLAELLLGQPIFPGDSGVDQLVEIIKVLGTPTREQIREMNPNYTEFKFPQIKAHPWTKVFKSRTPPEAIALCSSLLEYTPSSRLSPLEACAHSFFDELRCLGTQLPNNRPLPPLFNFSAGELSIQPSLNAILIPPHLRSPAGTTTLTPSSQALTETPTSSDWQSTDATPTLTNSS
Sequence of Tyrosine-protein kinase Blk (P51451 whole entry, the tested form may be a part): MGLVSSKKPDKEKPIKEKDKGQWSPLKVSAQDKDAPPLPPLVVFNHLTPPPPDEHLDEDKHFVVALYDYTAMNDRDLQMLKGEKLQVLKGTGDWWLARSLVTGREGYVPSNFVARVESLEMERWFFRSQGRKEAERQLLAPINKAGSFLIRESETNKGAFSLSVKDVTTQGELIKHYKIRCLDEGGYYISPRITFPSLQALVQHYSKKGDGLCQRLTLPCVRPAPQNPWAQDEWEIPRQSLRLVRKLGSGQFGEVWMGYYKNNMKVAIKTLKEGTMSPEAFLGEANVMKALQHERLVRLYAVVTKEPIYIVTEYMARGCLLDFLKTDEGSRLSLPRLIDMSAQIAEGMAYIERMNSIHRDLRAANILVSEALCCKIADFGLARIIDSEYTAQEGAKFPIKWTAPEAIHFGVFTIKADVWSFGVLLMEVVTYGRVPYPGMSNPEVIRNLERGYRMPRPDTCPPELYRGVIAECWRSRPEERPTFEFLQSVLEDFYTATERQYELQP
Sequence of Serine/threonine-protein kinase Sgk1 (Homo sapiens) (O00141 whole entry, the tested form may be a part): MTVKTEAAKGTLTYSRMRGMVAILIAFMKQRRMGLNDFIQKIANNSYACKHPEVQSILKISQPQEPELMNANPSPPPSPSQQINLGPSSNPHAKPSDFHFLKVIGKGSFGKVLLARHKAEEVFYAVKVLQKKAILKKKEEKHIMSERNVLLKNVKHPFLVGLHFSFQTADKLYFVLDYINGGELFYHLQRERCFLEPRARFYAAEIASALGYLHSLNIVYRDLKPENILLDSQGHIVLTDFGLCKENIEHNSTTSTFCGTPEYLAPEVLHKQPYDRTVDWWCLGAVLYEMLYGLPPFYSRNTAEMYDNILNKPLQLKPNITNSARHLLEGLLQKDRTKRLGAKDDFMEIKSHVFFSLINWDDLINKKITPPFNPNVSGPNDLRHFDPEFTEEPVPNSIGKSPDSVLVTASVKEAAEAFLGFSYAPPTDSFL
Sequence of Tyrosine-protein kinase BTK (Q06187 whole entry): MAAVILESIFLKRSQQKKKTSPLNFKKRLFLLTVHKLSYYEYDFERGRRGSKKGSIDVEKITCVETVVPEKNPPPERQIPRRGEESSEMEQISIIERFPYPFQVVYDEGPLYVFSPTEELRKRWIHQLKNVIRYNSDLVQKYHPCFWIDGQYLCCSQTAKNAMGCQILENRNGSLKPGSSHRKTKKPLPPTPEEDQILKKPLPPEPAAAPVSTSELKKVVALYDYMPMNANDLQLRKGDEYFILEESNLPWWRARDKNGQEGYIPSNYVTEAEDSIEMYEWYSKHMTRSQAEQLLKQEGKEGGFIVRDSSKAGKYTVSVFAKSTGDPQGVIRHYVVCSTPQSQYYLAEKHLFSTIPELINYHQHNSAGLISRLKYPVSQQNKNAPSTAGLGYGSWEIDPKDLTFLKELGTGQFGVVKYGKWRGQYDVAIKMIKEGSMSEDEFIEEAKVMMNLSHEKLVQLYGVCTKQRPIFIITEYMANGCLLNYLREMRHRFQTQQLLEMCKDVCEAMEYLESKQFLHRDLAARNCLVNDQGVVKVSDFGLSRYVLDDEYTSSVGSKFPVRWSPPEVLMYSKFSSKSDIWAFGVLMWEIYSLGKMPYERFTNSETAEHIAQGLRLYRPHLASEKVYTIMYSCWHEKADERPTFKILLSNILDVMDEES
Sequence of Tyrosine-protein kinase Lck (P06239 whole entry, the tested form may be a part): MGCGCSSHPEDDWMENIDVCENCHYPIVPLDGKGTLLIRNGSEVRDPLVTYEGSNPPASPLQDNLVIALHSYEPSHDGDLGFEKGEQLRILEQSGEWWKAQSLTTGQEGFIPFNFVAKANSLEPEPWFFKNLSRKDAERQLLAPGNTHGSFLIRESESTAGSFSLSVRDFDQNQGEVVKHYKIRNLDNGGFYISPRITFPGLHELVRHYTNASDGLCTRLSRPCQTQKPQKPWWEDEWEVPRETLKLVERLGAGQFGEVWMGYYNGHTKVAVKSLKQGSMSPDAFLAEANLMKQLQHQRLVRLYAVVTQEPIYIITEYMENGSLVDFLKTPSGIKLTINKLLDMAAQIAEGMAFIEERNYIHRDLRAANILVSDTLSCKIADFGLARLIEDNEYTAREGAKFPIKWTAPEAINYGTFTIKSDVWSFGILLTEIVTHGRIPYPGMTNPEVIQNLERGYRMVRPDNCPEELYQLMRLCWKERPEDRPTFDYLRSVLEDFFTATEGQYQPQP
Sequence of Epidermal growth factor receptor (P00533 whole entry, the tested form may be a part): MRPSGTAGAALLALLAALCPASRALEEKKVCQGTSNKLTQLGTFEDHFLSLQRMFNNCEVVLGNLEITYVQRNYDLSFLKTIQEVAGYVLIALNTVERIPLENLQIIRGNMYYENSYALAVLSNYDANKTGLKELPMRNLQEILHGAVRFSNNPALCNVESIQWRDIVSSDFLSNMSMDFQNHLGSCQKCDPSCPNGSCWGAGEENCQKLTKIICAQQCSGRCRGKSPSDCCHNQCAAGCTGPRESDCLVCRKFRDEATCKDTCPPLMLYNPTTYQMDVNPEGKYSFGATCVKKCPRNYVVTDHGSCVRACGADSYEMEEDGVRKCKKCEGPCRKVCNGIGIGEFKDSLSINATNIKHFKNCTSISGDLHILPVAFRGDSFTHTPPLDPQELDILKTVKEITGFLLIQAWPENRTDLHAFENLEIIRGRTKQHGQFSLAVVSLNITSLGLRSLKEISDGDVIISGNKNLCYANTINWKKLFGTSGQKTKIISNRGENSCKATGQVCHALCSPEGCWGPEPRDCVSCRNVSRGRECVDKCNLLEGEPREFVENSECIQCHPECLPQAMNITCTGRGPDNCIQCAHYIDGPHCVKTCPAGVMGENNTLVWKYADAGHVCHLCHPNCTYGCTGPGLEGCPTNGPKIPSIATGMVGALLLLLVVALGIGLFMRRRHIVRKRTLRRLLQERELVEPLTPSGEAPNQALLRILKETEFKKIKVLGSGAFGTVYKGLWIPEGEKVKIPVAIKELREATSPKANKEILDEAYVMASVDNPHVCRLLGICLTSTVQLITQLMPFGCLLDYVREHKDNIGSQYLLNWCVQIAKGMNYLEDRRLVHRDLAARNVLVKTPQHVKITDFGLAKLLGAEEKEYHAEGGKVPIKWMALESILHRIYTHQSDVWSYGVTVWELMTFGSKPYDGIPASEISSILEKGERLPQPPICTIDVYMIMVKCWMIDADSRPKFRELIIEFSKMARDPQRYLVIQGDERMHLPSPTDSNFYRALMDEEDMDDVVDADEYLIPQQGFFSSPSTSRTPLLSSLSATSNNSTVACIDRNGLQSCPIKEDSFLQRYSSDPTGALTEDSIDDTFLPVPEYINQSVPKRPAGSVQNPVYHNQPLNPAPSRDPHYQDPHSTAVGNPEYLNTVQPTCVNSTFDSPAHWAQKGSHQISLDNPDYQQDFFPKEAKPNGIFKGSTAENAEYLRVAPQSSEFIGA

As to `C=CC(=O)N1CCC(Oc2nc(Nc3ccc(N4CCOCC4)cc3)nc3[nH]cc(-c4cncc(NC)n4)c23)CC1`, the figures for the IC50 in assay [1], in [20] and in [21] were 996 nM, 74 nM and 198 nM, respectively. Also, the result in assay [2], in [3], in [17], in assay [18] and in [19] was Active. Besides, the figures for the GI50 in assay [4] and in [16] were 167 nM and 544 nM, respectively. For the same compound, the Ratio IC50 was determined as 33 in assay [5] and 250 in assay [6]. The Activity in [7] was determined as 97%; in [8], 95%; in assay [9], 92.7%; in assay [10], 89%; in assay [11], 84%; in assay [12] it was 78.7%. Besides, the Activity in assay [13] was 62%; in assay [14], 29.3%. In assay [15], the Ratio amounted to 101 ×10³ /M.s.
